# Assay results: patent publication US6818767B2, “Quinoline derivatives” (Hoffmann-La Roche Inc., priority 2001, dated 2004)
# Biological target: T1, mouse NPY5-receptor (mNPY5) (Mus musculus, UniProt O70342)
# T1 construct: The full-length cDNA encoding the mouse NPY5 (mNPY5) receptor was amplified from mouse brain cDNA; expressed in transfected cells; membrane preparation
# T1 sequence (O70342 1-466): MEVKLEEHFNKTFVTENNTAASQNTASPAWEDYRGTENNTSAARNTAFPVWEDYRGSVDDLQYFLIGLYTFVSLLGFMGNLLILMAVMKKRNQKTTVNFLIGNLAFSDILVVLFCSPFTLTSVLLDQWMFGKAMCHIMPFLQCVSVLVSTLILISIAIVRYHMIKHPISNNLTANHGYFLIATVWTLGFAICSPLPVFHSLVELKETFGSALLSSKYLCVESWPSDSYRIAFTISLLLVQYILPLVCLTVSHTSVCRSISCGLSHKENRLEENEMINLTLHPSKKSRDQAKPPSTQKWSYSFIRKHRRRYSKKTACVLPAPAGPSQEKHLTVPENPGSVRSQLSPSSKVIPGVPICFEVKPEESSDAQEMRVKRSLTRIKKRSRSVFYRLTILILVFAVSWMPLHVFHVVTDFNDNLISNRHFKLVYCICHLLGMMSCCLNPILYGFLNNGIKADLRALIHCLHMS
# Test: Radioligand competition binding
# Conditions: displacement of 100 pM [125I]labelled peptide YY, membranes of HEK293 cells expressing recombinant mNPY5, 1 h at 22° C.; read-out: NPY5-R (mouse) IC50
# Excerpt: The full-length cDNA encoding the mouse NPY5 (mNPY5) receptor was amplified from mouse brain cDNA using specific primers, designed based on the published sequence, and Pfu DNA-Polymerase (Stratagene). The amplification product was subcloned into the mammalian expression vector pcDNA3 using Eco RI and XhoI restriction sites. Positive clones were sequenced and one clone, encoding the published sequence was selected for generation of stable cell clones.
# Human embryonic kidney 293 (HEK293) cells were transfected with 10 μg mNPY5 DNA using the lipofectamine reagent (Gibco BRL) according to the manufacturer's instruction. Two days after transfection, geneticin selection (1 mg/ml) was initiated and several stable clones were isolated. One clone was further used for pharmacological characterization.
# Human embryonic kidney 293 cells (HEK293), expressing recombinant mouse NPY5-receptor (mNPY5) were broken by three freeze/thawing cycles in hypotonic Tris buffer (5 mM, pH 7.4, 1 mM MgCl2), homogenized and centrifuged at 72,000×g for 15 min. The pellet was washed twice with 75 mM Tris buffer, pH 7.4, containing 25 mM MgCl2 and 250 mM sucrose, 0.1 mM phenylmethylsulfonylfluoride and 0.1 mM 1,10-pheneanthrolin, resuspended in the same buffer and stored in aliquots at −80° C. Protein was determined according to the method of Lowry using bovine serum albumine (BSA) as a standard. […]
row,IC50 [nM],SMILES
1,27,"Cc1cc(N2CCCC2)c2ccc(OCC3CC3)cc2n1 [Example 5, 7-cyclopropylmethoxy-2-methyl-4-pyrrolidin-1-yl-quinoline]"
2,9.9,"CCCCc1cc2c(N3CCCC3)ccnc2cc1O [Example 34, 6-butyl-4-pyrrolidin-1-yl-quinolin-7-ol]"
